Test system: MV-4-11 cells
Test: Gene expression microarray analysis (Affymetrix PrimeView) and GSEA
Format: cell-based, human
Set-up: RFU PODN (11730768_x_at) / Fold change /veh PODN (11730768_x_at) / RFU LINC00158 (11744669_a_at) / Fold change /veh LINC00158 (11744669_a_at) / RFU DUSP10 (11751237_a_at) / Fold change /veh DUSP10 (11751237_a_at) / RFU ID3 (11757404_x_at) / Fold change /veh ID3 (11757404_x_at) / RFU PLEKHG5 (11737974_s_at) / Fold change /veh PLEKHG5 (11737974_s_at) / RFU LRRC4B (11730491_at) / Fold change /veh LRRC4B (11730491_at) / RFU GIMAP4 (11747438_a_at) / Fold change /veh GIMAP4 (11747438_a_at) / RFU KRT8 (11758183_x_at) / Fold change /veh KRT8 (11758183_x_at) / RFU CNN1 (11734310_a_at) / Fold change /veh CNN1 (11734310_a_at) / RFU VPS37D (11726825_at) / Fold change /veh VPS37D (11726825_at) / RFU C10orf10 (11716522_x_at) / Fold change /veh C10orf10 (11716522_x_at) / RFU KIR2DL2 /// KIR2DL4 /// KIR2DL5A /// KIR2DL5B /// KIR2DS1 /// KIR2DS2 /// KIR2DS3 /// KIR2DS4 /// KIR3DL3 /// KIR3DL3 /// KIR3DS1 (11738374_at) / Fold change /veh KIR2DL2 /// KIR2DL4 /// KIR2DL5A /// KIR2DL5B /// KIR2DS1 /// KIR2DS2 /// KIR2DS3 /// KIR2DS4 /// KIR3DL3 /// KIR3DL3 /// KIR3DS1 (11738374_at) / RFU C1QL1 (11718748_at) / Fold change /veh C1QL1 (11718748_at) / RFU TMPRSS4 (11747572_a_at) / Fold change /veh TMPRSS4 (11747572_a_at) / RFU HAMP (11756126_x_at) / Fold change /veh HAMP (11756126_x_at) / RFU RNFT2 (11725882_a_at) / Fold change /veh RNFT2 (11725882_a_at) / RFU NR4A2 (11747474_a_at) / Fold change /veh NR4A2 (11747474_a_at) / RFU ABCC12 (11746883_a_at) / Fold change /veh ABCC12 (11746883_a_at) / RFU TMEM136 (11760407_x_at) / Fold change /veh TMEM136 (11760407_x_at) / RFU CLDN22 /// WWC2 (11732394_at) / Fold change /veh CLDN22 /// WWC2 (11732394_at) / RFU HLA-DPB1 (11760878_x_at) / Fold change /veh HLA-DPB1 (11760878_x_at) / RFU SPINT1 (11716480_a_at) / Fold change /veh SPINT1 (11716480_a_at) / RFU GAP43 (11754022_s_at) / Fold change /veh GAP43 (11754022_s_at) / RFU A4GNT (11735810_at) / Fold change /veh A4GNT (11735810_at) / RFU PRB3 (11715151_x_at) / Fold change /veh PRB3 (11715151_x_at) / RFU TUBB4B (11761932_at) / Fold change /veh TUBB4B (11761932_at) / RFU CAPN14 (11732068_a_at) / Fold change /veh CAPN14 (11732068_a_at) / RFU TMCC2 (11721928_a_at) / Fold change /veh TMCC2 (11721928_a_at) / RFU IRGQ (11745062_a_at) / Fold change /veh IRGQ (11745062_a_at) / RFU FAM174B (11720279_a_at) / Fold change /veh FAM174B (11720279_a_at) / RFU TMPRSS4 (11748680_a_at) / Fold change /veh TMPRSS4 (11748680_a_at) / RFU FAM212B (11763350_a_at) / Fold change /veh FAM212B (11763350_a_at) / RFU PLEKHG5 (11743358_a_at) / Fold change /veh PLEKHG5 (11743358_a_at) / RFU ZSCAN30 (11745921_a_at) / Fold change /veh ZSCAN30 (11745921_a_at) / RFU CMKLR1 (11741424_a_at) / Fold change /veh CMKLR1 (11741424_a_at) / RFU LOC101060620 /// MAPK8IP1 (11723275_at) / Fold change /veh LOC101060620 /// MAPK8IP1 (11723275_at) / RFU SPTSSB (11747773_x_at) / Fold change /veh SPTSSB (11747773_x_at) / RFU PRSS12 (11739890_at) / Fold change /veh PRSS12 (11739890_at) / RFU BIN1 (11741810_x_at) / Fold change /veh BIN1 (11741810_x_at) / RFU WNT11 (11732464_a_at) / Fold change /veh WNT11 (11732464_a_at) / RFU C10orf10 (11716521_a_at) / Fold change /veh C10orf10 (11716521_a_at) / RFU C5orf56 (11738089_at) / Fold change /veh C5orf56 (11738089_at) / RFU CYB561 (11721691_x_at) / Fold change /veh CYB561 (11721691_x_at) / RFU ANKRD19P (11752326_a_at) / Fold change /veh ANKRD19P (11752326_a_at) / RFU OR2T12 /// OR2T33 /// OR2T8 (11738714_s_at) / Fold change /veh OR2T12 /// OR2T33 /// OR2T8 (11738714_s_at) / RFU VCAN (11748164_a_at) / Fold change /veh VCAN (11748164_a_at) / RFU JSRP1 (11732532_at) / Fold change /veh JSRP1 (11732532_at) / RFU KRTAP10-11 (11738290_x_at) / Fold change /veh KRTAP10-11 (11738290_x_at) / RFU MYO3A (11730013_a_at) / Fold change /veh MYO3A (11730013_a_at) / RFU EBF3 (11725865_a_at) / Fold change /veh EBF3 (11725865_a_at) / RFU CAMK2N1 (11719241_x_at) / Fold change /veh CAMK2N1 (11719241_x_at) / RFU C5orf56 (11738088_a_at) / Fold change /veh C5orf56 (11738088_a_at) / RFU OLFML3 (11715873_a_at) / Fold change /veh OLFML3 (11715873_a_at) / RFU LOC100653217 /// NTM (11731650_a_at) / Fold change /veh LOC100653217 /// NTM (11731650_a_at) / RFU MAPK11 (11762145_a_at) / Fold change /veh MAPK11 (11762145_a_at) / RFU FIZ1 (11724087_x_at) / Fold change /veh FIZ1 (11724087_x_at) / RFU OASL (11726364_x_at) / Fold change /veh OASL (11726364_x_at) / RFU SOX15 (11748057_x_at) / Fold change /veh SOX15 (11748057_x_at) / RFU CD79A (11719716_a_at) / Fold change /veh CD79A (11719716_a_at) / RFU HIST1H1D (11736915_at) / Fold change /veh HIST1H1D (11736915_at) / RFU CASKIN2 (11723855_a_at) / Fold change /veh CASKIN2 (11723855_a_at) / RFU LOC730098 (11760151_x_at) / Fold change /veh LOC730098 (11760151_x_at) / RFU OR4N2 (11742367_at) / Fold change /veh OR4N2 (11742367_at) / RFU PRRT2 (11749266_a_at) / Fold change /veh PRRT2 (11749266_a_at) / RFU SNX32 (11753110_a_at) / Fold change /veh SNX32 (11753110_a_at) / RFU CDHR5 (11726645_a_at) / Fold change /veh CDHR5 (11726645_a_at) / RFU RCAN1 (11760418_a_at) / Fold change /veh RCAN1 (11760418_a_at) / RFU FAM167A (11723789_a_at) / Fold change /veh FAM167A (11723789_a_at) / RFU FAM26E (11764081_at) / Fold change /veh FAM26E (11764081_at) / RFU ISYNA1 (11749810_s_at) / Fold change /veh ISYNA1 (11749810_s_at) / RFU ACY1 (11761880_at) / Fold change /veh ACY1 (11761880_at) / RFU 11764098_at / Fold change /veh 11764098_at / RFU SAMD14 (11745864_x_at) / Fold change /veh SAMD14 (11745864_x_at) / RFU NPB (11741838_a_at) / Fold change /veh NPB (11741838_a_at) / RFU TMPRSS6 (11731388_a_at) / Fold change /veh TMPRSS6 (11731388_a_at) / RFU KRTAP10-2 (11738614_at) / Fold change /veh KRTAP10-2 (11738614_at) / RFU ARHGAP8 /// PRR5-ARHGAP8 (11727945_x_at) / Fold change /veh ARHGAP8 /// PRR5-ARHGAP8 (11727945_x_at) / RFU KRTAP5-7 /// NADSYN1 (11734609_at) / Fold change /veh KRTAP5-7 /// NADSYN1 (11734609_at) / RFU RASL12 (11751679_a_at) / Fold change /veh RASL12 (11751679_a_at) / RFU CDKN2B (11736163_a_at) / Fold change /veh CDKN2B (11736163_a_at) / RFU PRF1 (11729649_at) / Fold change /veh PRF1 (11729649_at) / RFU, ZNF638 /// ZNF638-IT1 / Fold change vs veh, ZNF638 /// ZNF638-IT1 / RFU, PANK3 / Fold change vs veh, PANK3 / RFU, SH3YL1 / Fold change vs veh, SH3YL1 / RFU, ZEB2 / Fold change vs veh, ZEB2 / RFU, NRIP1 / Fold change vs veh, NRIP1 / RFU, PTTG1IP / Fold change vs veh, PTTG1IP / RFU, CAPN2 / Fold change vs veh, CAPN2 / RFU, MED14 / Fold change vs veh, MED14 / RFU, SNORA58 / Fold change vs veh, SNORA58 / RFU, C1orf63 / Fold change vs veh, C1orf63 / RFU, LRRFIP1 / Fold change vs veh, LRRFIP1 / RFU, NDUFAF7 / Fold change vs veh, NDUFAF7 / RFU, SLC12A2 / Fold change vs veh, SLC12A2 / RFU, IBTK / Fold change vs veh, IBTK / RFU, ESF1 / Fold change vs veh, ESF1 / Fold change vs veh, TMEM50B / RFU, TAOK1 / Fold change vs veh, TAOK1 / RFU, ACBD3 / Fold change vs veh, ACBD3 / RFU, TMA16 / Fold change vs veh, TMA16 / RFU, RWDD3 / Fold change vs veh, RWDD3 / RFU, BCAT1 / Fold change vs veh, BCAT1 / RFU, EDEM3 / Fold change vs veh, EDEM3 / RFU, TMEM33 / Fold change vs veh, TMEM33 / RFU, WDR75 / Fold change vs veh, WDR75 / RFU, AHCTF1 / Fold change vs veh, AHCTF1 / RFU, TFRC / Fold change vs veh, TFRC / RFU, ZDHHC17 / Fold change vs veh, ZDHHC17 / RFU, NOM1 / Fold change vs veh, NOM1 / RFU, ARL8B / Fold change vs veh, ARL8B / RFU, ZBTB11 / Fold change vs veh, ZBTB11 / RFU, TAMM41 / Fold change vs veh, TAMM41 / RFU, KIAA1704 /// LOC100996395 / Fold change vs veh, KIAA1704 /// LOC100996395 / RFU, ING1 / Fold change vs veh, ING1 / RFU, TRMT61B / Fold change vs veh, TRMT61B / RFU, FUBP3 / Fold change vs veh, FUBP3 / RFU, TP53 / Fold change vs veh, TP53 / RFU, TNKS2 / Fold change vs veh, TNKS2 / RFU, ZFP14 / Fold change vs veh, ZFP14 / RFU, ACTR2 / Fold change vs veh, ACTR2 / RFU, PPP3R1 / Fold change vs veh, PPP3R1 / RFU, PIK3R1 / Fold change vs veh, PIK3R1 / RFU, HNRNPA1 / Fold change vs veh, HNRNPA1 / RFU, RNF170 / Fold change vs veh, RNF170 / RFU, ZNF28 / Fold change vs veh, ZNF28 / RFU, RNGTT / Fold change vs veh, RNGTT / RFU, OGT / Fold change vs veh, OGT / RFU, BRD1 / Fold change vs veh, BRD1 / RFU, MARS / Fold change vs veh, MARS / RFU, ZNF655 / Fold change vs veh, ZNF655 / RFU, FAHD1 / Fold change vs veh, FAHD1 / RFU, BDP1 / Fold change vs veh, BDP1 / RFU, LRRCC1 / Fold change vs veh, LRRCC1 / RFU, ARID1A / Fold change vs veh, ARID1A / RFU, ZNF146 / Fold change vs veh, ZNF146 / RFU, ZNF330 / Fold change vs veh, ZNF330 / RFU, GPN3 / Fold change vs veh, GPN3 / RFU, C9orf123 / Fold change vs veh, C9orf123 / RFU, N4BP2L2 / Fold change vs veh, N4BP2L2 / RFU, ARFIP1 / Fold change vs veh, ARFIP1 / RFU, FAM179B / Fold change vs veh, FAM179B / RFU, BCL10 / Fold change vs veh, BCL10 / RFU, UHRF1BP1L / Fold change vs veh, UHRF1BP1L / RFU, BET1 / Fold change vs veh, BET1 / RFU, CNOT2 / Fold change vs veh, CNOT2 / RFU, ZNF268 / Fold change vs veh, ZNF268 / Fold change vs veh, ZNF507 / RFU, DGCR2 / Fold change vs veh, DGCR2 / RFU, WDSUB1 / Fold change vs veh, WDSUB1 / Fold change vs veh, HSP90B1 /// MIR3652 / RFU, ADSS / Fold change vs veh, ADSS / RFU, GK / Fold change vs veh, GK / RFU, ZNF148 / Fold change vs veh, ZNF148 / RFU, TAF9 / Fold change vs veh, TAF9 / RFU, SLC1A5 / Fold change vs veh, SLC1A5 / RFU, SLMO2 / Fold change vs veh, SLMO2 / RFU, ABCC4 / Fold change vs veh, ABCC4 / RFU, LOC101060439 /// RAP1B / Fold change vs veh, LOC101060439 /// RAP1B / RFU, RFX7 / Fold change vs veh, RFX7 / RFU, GTPBP10 / Fold change vs veh, GTPBP10 / RFU, CNEP1R1 / Fold change vs veh, CNEP1R1 / RFU, BIVM-ERCC5 /// ERCC5 / Fold change vs veh, BIVM-ERCC5 /// ERCC5 / RFU, ILF3 / Fold change vs veh, ILF3 / RFU 11762660_at / Fold change /veh 11762660_at / RFU VCAN (11757783_s_at) / Fold change /veh VCAN (11757783_s_at) / RFU DDX43 (11728927_at) / Fold change /veh DDX43 (11728927_at) / RFU KRT8 (11758188_x_at) / Fold change /veh KRT8 (11758188_x_at) / RFU NKD1 (11759106_at) / Fold change /veh NKD1 (11759106_at) / RFU SRD5A1 (11742802_a_at) / Fold change /veh SRD5A1 (11742802_a_at) / RFU TPSAB1 /// TPSB2 (11721975_s_at) / Fold change /veh TPSAB1 /// TPSB2 (11721975_s_at) / RFU GSTM3 (11746129_a_at) / Fold change /veh GSTM3 (11746129_a_at) / RFU IL23R (11737362_x_at) / Fold change /veh IL23R (11737362_x_at) / RFU TMEM51 (11727254_a_at) / Fold change /veh TMEM51 (11727254_a_at) / RFU PIWIL2 (11732686_x_at) / Fold change /veh PIWIL2 (11732686_x_at) / RFU ORM1 (11744905_x_at) / Fold change /veh ORM1 (11744905_x_at) / RFU CCDC152 (11743942_at) / Fold change /veh CCDC152 (11743942_at) / RFU ECM1 (11717891_a_at) / Fold change /veh ECM1 (11717891_a_at) / RFU IL23R (11748794_a_at) / Fold change /veh IL23R (11748794_a_at) / RFU TNFAIP8L3 (11732012_x_at) / Fold change /veh TNFAIP8L3 (11732012_x_at) / RFU MBOAT4 (11741988_at) / Fold change /veh MBOAT4 (11741988_at) / RFU 11764193_at / Fold change /veh 11764193_at / RFU TMEM53 (11763286_at) / Fold change /veh TMEM53 (11763286_at) / RFU MAGEB2 (11727129_at) / Fold change /veh MAGEB2 (11727129_at) / RFU TMEM200A (11744735_a_at) / Fold change /veh TMEM200A (11744735_a_at) / RFU CCDC152 (11751479_a_at) / Fold change /veh CCDC152 (11751479_a_at) / RFU FAM211A (11726209_a_at) / Fold change /veh FAM211A (11726209_a_at) / RFU RGS16 (11746705_a_at) / Fold change /veh RGS16 (11746705_a_at) / RFU VCAN (11755009_s_at) / Fold change /veh VCAN (11755009_s_at) / RFU RHOB (11743442_s_at) / Fold change /veh RHOB (11743442_s_at) / RFU RGS16 (11720943_a_at) / Fold change /veh RGS16 (11720943_a_at) / RFU RGS16 (11720944_at) / Fold change /veh RGS16 (11720944_at) / RFU, VPS4B / Fold change vs veh, VPS4B / RFU, CREB1 / Fold change vs veh, CREB1 / RFU, DNAJC13 / Fold change vs veh, DNAJC13 / RFU, GNAQ / Fold change vs veh, GNAQ / RFU, CDK5R1 / Fold change vs veh, CDK5R1 / RFU, ZRANB3 / Fold change vs veh, ZRANB3 / RFU, CUL4A / Fold change vs veh, CUL4A / RFU, CCNY / Fold change vs veh, CCNY / RFU, UFL1 / Fold change vs veh, UFL1 / RFU, COG3 / Fold change vs veh, COG3 / RFU, DIAPH2 / Fold change vs veh, DIAPH2 / RFU, SKA2 / Fold change vs veh, SKA2 / RFU, AFF3 / Fold change vs veh, AFF3 / RFU, LMF1 / Fold change vs veh, LMF1 / RFU, IPO11 / Fold change vs veh, IPO11 / RFU, DFFB / Fold change vs veh, DFFB / RFU, FOXP1 / Fold change vs veh, FOXP1 / RFU, CARD8 / Fold change vs veh, CARD8 / RFU, STRN3 / Fold change vs veh, STRN3 / RFU, ADK / Fold change vs veh, ADK / RFU, RASSF2 / Fold change vs veh, RASSF2 / RFU, WIPF1 / Fold change vs veh, WIPF1 / RFU, LARP1B / Fold change vs veh, LARP1B / RFU, RASA1 / Fold change vs veh, RASA1 / RFU, RB1 / Fold change vs veh, RB1 / RFU, PPFIA1 / Fold change vs veh, PPFIA1 / RFU, MAT2A / Fold change vs veh, MAT2A / RFU, CCT5 / Fold change vs veh, CCT5 / RFU, WDR92 / Fold change vs veh, WDR92 / RFU, CUX1 / Fold change vs veh, CUX1 / RFU, TTC7A / Fold change vs veh, TTC7A / RFU, TMEM135 / Fold change vs veh, TMEM135 / RFU, DEPTOR / Fold change vs veh, DEPTOR / RFU, CPM / Fold change vs veh, CPM / RFU, DNAJB6 / Fold change vs veh, DNAJB6 / RFU, CACNA2D3 / Fold change vs veh, CACNA2D3 / RFU, DTX4 / Fold change vs veh, DTX4 / RFU, TFCP2 / Fold change vs veh, TFCP2 / RFU, GMCL1 /// GMCL1P1 / Fold change vs veh, GMCL1 /// GMCL1P1 / RFU, AEBP2 / Fold change vs veh, AEBP2 / RFU, SNHG1 /// SNORD22 /// SNORD25 /// SNORD26 /// SNORD27 /// SNORD28 /// SNORD29 /// SNORD31 / Fold change vs veh, SNHG1 /// SNORD22 /// SNORD25 /// SNORD26 /// SNORD27 /// SNORD28 /// SNORD29 /// SNORD31 / Fold change (Aza/veh), C12orf56 (ProbeSet 11735607_a_at) / Fold change (ACY-1035/veh), C12orf56 (ProbeSet 11735607_a_at) / Fold change (Aza/veh), FGFR1OP (ProbeSet 11751329_s_at) / Fold change (ACY-1035/veh), FGFR1OP (ProbeSet 11751329_s_at) / Fold change (Aza/veh), VPS36 (ProbeSet 11739960_a_at) / Fold change (ACY-1035/veh), VPS36 (ProbeSet 11739960_a_at) / RFU SYPL1 (11715823_x_at) / Fold change /veh SYPL1 (11715823_x_at) / RFU IGFBP7 (11715501_s_at) / Fold change /veh IGFBP7 (11715501_s_at) / RFU REEP3 (11722064_at) / Fold change /veh REEP3 (11722064_at) / RFU IGLL1 (11728026_x_at) / Fold change /veh IGLL1 (11728026_x_at): dose or concentration left out as unconfirmed
Details: MV-4-11 cells, 48 hours

Nc1ncn([C@@H]2O[C@H](CO)[C@@H](O)[C@H]2O)c(=O)n1 [azacitidine]
RFU FAM212B (11763350_a_at): 32.55 RFU

Reference: article PMC5218480 (PLoS ONE, 2017)
